The values below come from US6133279A, “Therapeutic agents for renal diseases and organ preservatives” (Chugai Seiyaku Kabushiki Kaisha, priority 1996, dated 2000).

For assay [1], the system named is porcine kidney-derived LLC-PK1 cells. The assay can be described thus: Protective effect against oxidized LDL-induced injury of porcine kidney-derived LLC-PK1 cells (1). Format: cell-based. Particulars: Sus scrofa, LLC-PK1, 6 h, mean ± standard deviation, read-out: Cytoprotection rate (%). The protocol:
For the purpose of evaluating in vitro cytoprotective effect of the compounds of the present invention, a cytoprotective study was performed using porcine kidney-derived LLC-PK1 cells (ATCC-CRL-13921) injured by oxidized low-density lipoprotein (oxidized LDL).
Oxidized LDL was prepared by incubating 1 mg/ml of rabbit LDL in PBS (-) in the presence of 10 μM CuSO4 at 37° C. for 24 hours. Cell culture was carried out by plating 1.25×10^4 cells/250 μl/well on a 48-well plate containing M199 medium containing 3% FBS. Test compounds were dissolved or suspended in ethanol and added to the wells in an amount of 1.25 μl/well to a concentration of 0.1, 1 or 10 μM in each well. After 16 hours or immediately after the addition of the compounds, oxidized LDL was added to the wells. Probucol, α-tocopherol and Trolox which is a water-soluble analogue of α-tocopherol were used as reference control compounds. Oxidized LDL was diluted twice with saline and then added to the wells in an amount of 62.5 μl/well to a concentration of 100 μg/ml and the cells were cultured for 6 hours after addition of the oxidized LDL. Then, 162.5 μl/well of the culture medium were collected and measured for the lactate dehydrogenase (LDH) level (LD-L: SIGNA DIAGNOSTICS) having leaked into the medium.
The magnitude of cytoprotective effect was expressed as the cytoprotection rate which was determined by calculating the data assuming that the magnitude in wells containing oxidized LDL is 0% and that the magnitude in wells containing saline is 100%.

For assay [2] the test system is unchanged. Nature of the assay: Protective effect against oxidized LDL-induced injury of porcine kidney-derived LLC-PK1 cells (2). In kind it is cell-based. Particulars: Sus scrofa, LLC-PK1, 6 h, mean ± standard deviation, read-out: Cytoprotection rate (%). The protocol:
For the purpose of evaluating in vitro cytoprotective effect of the compounds of the present invention, a cytoprotective study was performed using porcine kidney-derived LLC-PK1 cells (ATCC-CRL-13921) injured by oxidized low-density lipoprotein (oxidized LDL) in the same manner as in Test example 1 with the exception of some points.
Preparation of oxidized LDL and the conditions for cell culture and addition of test compounds were the same as in Test example 1. However, oxidized LDL was not diluted with saline and added to cells in an amount of 25 μl/well to a concentration of 91 μg/ml and the cells were cultured for 6 hours after addition of the oxidized LDL. Then, 150 μl/well of the culture medium were collected and measured for the lactate dehydrogenase (LDH) level (LD-L: SIGMA DIAGNOSTICS) having leaked in the medium.

[3] abbreviates: compound added 16 hours before adding oxidized LDL.
Where [4] appears, read: compound added immediately before adding oxidized LDL.

As to `CC(C)(C)c1cc2c(c(C(C)(C)C)c1O)CCO2` [Example 1, 4,6-Di-t-butyl-5-hydroxy-2,3-dihydrobenzofuran], in assay [1] (setting [3]), the inhibition at 0.1 µM turned out to be 22.3 ± 2.8%, the inhibition at 1 µM came out at 104 ± 3.3% and the inhibition at 10 µM came out at 100.9 ± 0.5%. In assay [1] (setting [4]), the inhibition at 0.1 µM is 7.6 ± 1.4%, the inhibition at 1 µM is 99.7 ± 0.4% and the inhibition at 10 µM turned out to be 100.9 ± 0.3%.
In the case of `CC(=O)Oc1c(C(C)(C)C)cc2c(c1C(C)(C)C)CC(C)(C)O2` [Example 3, 5-Acetoxy-4,6-di-t-butyl-2,2-dimethyl-2,3-dihydrobenzofuran], in assay [1] (setting [3]), the inhibition at 0.1 µM came out at 27 ± 18.2%, the inhibition at 1 µM came to 1.8 ± 6.8% and the inhibition at 10 µM came out at 23.2 ± 11.3%. For the same compound, in assay [1] (setting [4]), the inhibition at 0.1 µM was -6.5 ± 2.7%, the inhibition at 1 µM is -4% and the inhibition at 10 µM was 4.3 ± 3.6%.
`CC1(C)Cc2c(cc(C(C)(C)C)c(O)c2C(C)(C)C)O1` [Example 4, 4,6-Di-t-butyl-5-hydroxy-2,2-dimethyl-2,3-dihydrobenzofuran]: in assay [1] (setting [3]), the inhibition at 0.1 µM was 11.5 ± 8%, the inhibition at 1 µM came to 106 ± 1.2% and the inhibition at 10 µM was found to be 100.4 ± 0.3%. In addition, in assay [1] (setting [4]), the inhibition at 0.1 µM was -9.6 ± 2.2%, the inhibition at 1 µM worked out at 103% and the inhibition at 10 µM was 99.6 ± 0.8%.
As for `CC(C)(C)c1cc2c(c(C(C)(C)C)c1O)CC(C(C)(C)C)O2` (stereo not drawn) [Example 13, 2,4,6-Tri-t-butyl-5-hydroxy-2,3-dihydrobenzofuran], in assay [1] (setting [3]), the inhibition at 0.1 µM was found to be 32 ± 2.8%, the inhibition at 1 µM turned out to be 55.6 ± 15% and the inhibition at 10 µM came to 99.9 ± 0.2%. In addition, in assay [1] (setting [4]), the inhibition at 0.1 µM is 11.9 ± 1.9%, the inhibition at 1 µM turned out to be 97.8% and the inhibition at 10 µM was 100.4 ± 0.4%.
On to `CC(C)(C)c1cc2c(c(C(C)(C)C)c1O)CC1(CCCC1)O2` [Example 18, 4,6-Di-t-butyl-5-hydroxy-2,3-dihydrobenzofuran-2-spiro-1'-cyclopentane], for which, in assay [1] (setting [3]), the inhibition at 0.1 µM is -1.9 ± 17.3%, the inhibition at 1 µM is 66.8 ± 22.2% and the inhibition at 10 µM is 99.9 ± 0.2%. In addition, in assay [1] (setting [4]), the inhibition at 0.1 µM is -4.5 ± 6.3%, the inhibition at 1 µM came out at 98.4% and the inhibition at 10 µM is 99.7 ± 0.2%.
Regarding `CC(C)(C)c1cc2c(c(C(C)(C)C)c1O)CC1(CCCCC1)O2` [Example 19, 4,6-Di-t-butyl-5-hydroxy-2,3-dihydrobenzofuran-2-spiro-1'-cyclohexane], in assay [2] (setting [3]), the inhibition at 0.1 µM was determined as 2.7 ± 1.6%, the inhibition at 1 µM came to 60.6 ± 6.1% and the inhibition at 10 µM worked out at 103 ± 1.2%. Moreover, in assay [2] (setting [4]), the inhibition at 0.1 µM is 1.2 ± 0.9%, the inhibition at 1 µM is 86.8 ± 5.2% and the inhibition at 10 µM is 101 ± 2.5%.
On to `CC(C)(C)c1cc2c(c(C(C)(C)C)c1O)CC1(CCOCC1)O2` [Example 22, 4,6-Di-t-butyl-5-hydroxy-2,3-dihydrobenzofuran-2-spiro-4'-tetrahydropyran], for which, in assay [1] (setting [3]), the inhibition at 0.1 µM was determined as 3.5 ± 10.4%, the inhibition at 1 µM was 102.2 ± 0.2% and the inhibition at 10 µM turned out to be 101 ± 0.5%. For the same compound, in assay [1] (setting [4]), the inhibition at 0.1 µM was -1.7 ± 0.2%, the inhibition at 1 µM came out at 101% and the inhibition at 10 µM turned out to be 101.1 ± 0.2%.
In the case of `CCCc1c2c(c(C(C)(C)C)c(O)c1C(C)(C)C)CC(C)(C)O2` [Example 25, 5-Hydroxy-4,6-di-t-butyl-2,2-dimethyl-7-propyl-2,3-dihydrobenzofuran], in assay [1] (setting [3]), the inhibition at 0.1 µM is 47.4 ± 6%, the inhibition at 1 µM worked out at 7.9 ± 10.8% and the inhibition at 10 µM amounted to 28.6 ± 6.4%. For the same compound, in assay [1] (setting [4]), the inhibition at 0.1 µM came out at 1.4 ± 3.8%, the inhibition at 1 µM came to 0.8% and the inhibition at 10 µM turned out to be 66.5 ± 7.7%.
Turning to `CC(C)(C)c1cc2occc2c(C(C)(C)C)c1O` [Example 27, 4,6-Di-t-butyl-5-hydroxybenzofuran], in assay [1] (setting [3]), the inhibition at 0.1 µM was 44.1 ± 24.3%, the inhibition at 1 µM was 96 ± 0.7% and the inhibition at 10 µM worked out at 97.7 ± 1.7%. Besides, in assay [1] (setting [4]), the inhibition at 0.1 µM amounted to 4.2 ± 1.4%, the inhibition at 1 µM worked out at 91% and the inhibition at 10 µM turned out to be 96.8 ± 0.5%.
For `CCCOc1cc(C(C)(C)C)c(O)c(C(C)(C)C)c1C` [Example 31, 2,6-Di-t-butyl-3-methyl-4-propyloxyphenol], in assay [1] (setting [3]), the inhibition at 0.1 µM was -0.1 ± 18.7%, the inhibition at 1 µM amounted to 3.5 ± 18.5% and the inhibition at 10 µM came to 68.8 ± 15.8%. Besides, in assay [1] (setting [4]), the inhibition at 0.1 µM is 6.9 ± 1.1%, the inhibition at 1 µM is 15.7% and the inhibition at 10 µM was 71.8 ± 6.9%.
Consider `C/C(=C\CCC1(C)Cc2c(cc(C(C)(C)C)c(O)c2C(C)(C)C)O1)CO` (stereo not drawn) [Example 46, 4,6-Di-t-butyl-5-hydroxy-2-(5-hydroxy-4-methyl-3(E)-pentenyl)-2-methyl-2,3-dihydrobenzofuran], for which, in assay [1] (setting [3]), the inhibition at 0.1 µM turned out to be 11 ± 1.5%, the inhibition at 1 µM came out at 53.5 ± 10% and the inhibition at 10 µM is 104 ± 2%. In addition, in assay [1] (setting [4]), the inhibition at 0.1 µM is -8.9 ± 3.1%, the inhibition at 1 µM was 101% and the inhibition at 10 µM is 104.4 ± 0.4%.
On to `CC1(CO)Cc2c(cc(C(C)(C)C)c(O)c2C(C)(C)C)O1` (stereo not drawn) [Example 48, 4,6-Di-t-butyl-5-hydroxy-2-hydroxymethyl-2-methyl-2,3-dihydrobenzofuran], for which, in assay [1] (setting [3]), the inhibition at 0.1 µM was -0.5 ± 23.4%, the inhibition at 1 µM is 84.2 ± 4.4% and the inhibition at 10 µM worked out at 98.1 ± 0.7%. Further, in assay [1] (setting [4]), the inhibition at 0.1 µM worked out at 3.8 ± 0.3%, the inhibition at 1 µM stood at 102% and the inhibition at 10 µM was 98.2 ± 0.3%.
`CCCCCC1(CCCCC)Cc2c(cc(C(C)(C)C)c(O)c2C(C)(C)C)S1` [Example 50, 4,6-Di-t-butyl-5-hydroxy-2,2-di-n-pentyl-2,3-dihydrobenzothiophene]: in assay [1] (setting [3]), the inhibition at 0.1 µM came out at 1.9 ± 8%, the inhibition at 1 µM came out at 37.4 ± 17.1% and the inhibition at 10 µM came to 81.6 ± 4%. Besides, in assay [1] (setting [4]), the inhibition at 0.1 µM was 9.3 ± 3.3%, the inhibition at 1 µM amounted to 15.3% and the inhibition at 10 µM was 99.2 ± 1.3%.
On to `CC1Cc2c(cc(C(C)(C)C)c(O)c2C(C)(C)C)S1` (stereo not drawn) [Example 51, 4,6-Di-t-butyl-5-hydroxy-2-methyl-2,3-dihydrobenzothiophene], for which, in assay [1] (setting [3]), the inhibition at 0.1 µM is -6.1 ± 7.6%, the inhibition at 1 µM amounted to 17.8 ± 18.1% and the inhibition at 10 µM was found to be 99.3 ± 0.7%. Also, in assay [1] (setting [4]), the inhibition at 0.1 µM came out at 2.2 ± 4.9%, the inhibition at 1 µM was determined as 28.9% and the inhibition at 10 µM worked out at 101.4 ± 0.3%.
As to `CC1(C)Cc2c(cc(C(C)(C)C)c(O)c2C(C)(C)C)S1` [Example 52, 4,6-Di-t-butyl-5-hydroxy-2,2-dimethyl-2,3-dihydrobenzothiophene], in assay [1] (setting [3]), the inhibition at 0.1 µM worked out at 6.5 ± 1.4%, the inhibition at 1 µM is 41.2 ± 11.9% and the inhibition at 10 µM is 99.1 ± 0.1%. Besides, in assay [1] (setting [4]), the inhibition at 0.1 µM was -0.7 ± 1.1%, the inhibition at 1 µM was determined as 96.9% and the inhibition at 10 µM was 99.5 ± 0.4%.
As for `CC(C)(C)c1cc2sccc2c(C(C)(C)C)c1O` [Example 54, 4,6-Di-t-butyl-5-hydroxybenzo[b]thiophene], in assay [1] (setting [3]), the inhibition at 0.1 µM is 96 ± 0.5%, the inhibition at 1 µM came to 90 ± 5% and the inhibition at 10 µM came out at 94.8 ± 2.2%. Also, in assay [1] (setting [4]), the inhibition at 0.1 µM turned out to be 35.9 ± 26.4%, the inhibition at 1 µM was 96.7% and the inhibition at 10 µM stood at 98.9 ± 0.4%.
Regarding `CC(C)(C)c1cc2c(c(C(C)(C)C)c1O)CC1(CCCCC1)S2` [Example 58, 4,6-Di-t-butyl-5-hydroxy-2,3-dihydrobenzothiophene-2-spiro-1'-cyclohexane], in assay [1] (setting [3]), the inhibition at 0.1 µM was determined as 3.6 ± 18.3%, the inhibition at 1 µM was found to be 95 ± 4.2% and the inhibition at 10 µM stood at 99.3 ± 0.9%. Further, in assay [1] (setting [4]), the inhibition at 0.1 µM came out at 11 ± 4%, the inhibition at 1 µM was determined as 74.3% and the inhibition at 10 µM came to 101 ± 0.2%.
Take `CN(C)CC1(C)Cc2c(cc(C(C)(C)C)c(O)c2C(C)(C)C)S1` (stereo not drawn) [Example 61, 4,6-Di-t-butyl-5-hydroxy-2-(N,N-dimethylaminomethyl)-2-methyl-2,3-dihydrobenzothiophene]: in assay [2] (setting [3]), the inhibition at 0.1 µM amounted to 5 ± 1.2%, the inhibition at 1 µM was 85.7 ± 8.1% and the inhibition at 10 µM came out at 101.3 ± 0.6%. For the same compound, in assay [2] (setting [4]), the inhibition at 0.1 µM worked out at 5.1 ± 1.5%, the inhibition at 1 µM was 97.6% and the inhibition at 10 µM turned out to be 101.7 ± 0.5%.
